This passage reports Activity and inhibition results from ChEMBL document CHEMBL4680139, “Antiproliferative activity of diarylnaphthylpyrrolidine derivative via dual target inhibition” (Eur J Med Chem, 2020).

Data set [1] in a line: Toxicity in Swiss albino mouse assessed as total bilirubin level in serum at 5 mg/kg, po administered as single dose (reference value: 0.62 +/-0.05 mg/dl). The class given is organism-based. As to conditions: in vivo.
Data set [2] has as its system MCF7. Briefly: Antiproliferative activity against human MCF-7 cells assessed as proportion of dead cells at 25 ug/ml measured after 3 weeks by crystal violet staining based soft agar colony formation assay. It counts as functional. As to conditions: dose 25 µg/ml.
In data set [3] the target is DNA topoisomerase 2-alpha (Homo sapiens) (UniProt P11388). Briefly: Inhibition of DNA-topoisomerase 2 in human MCF7 cells using kinetoplast DNA as substrate at 4.33 uM measured by ELISA. The class given is cell-based. (In general: An ELISA detects its analyte on a solid surface through an enzyme-linked reagent.)
DNA topoisomerase 2-alpha (Homo sapiens), sequence (P11388 whole entry): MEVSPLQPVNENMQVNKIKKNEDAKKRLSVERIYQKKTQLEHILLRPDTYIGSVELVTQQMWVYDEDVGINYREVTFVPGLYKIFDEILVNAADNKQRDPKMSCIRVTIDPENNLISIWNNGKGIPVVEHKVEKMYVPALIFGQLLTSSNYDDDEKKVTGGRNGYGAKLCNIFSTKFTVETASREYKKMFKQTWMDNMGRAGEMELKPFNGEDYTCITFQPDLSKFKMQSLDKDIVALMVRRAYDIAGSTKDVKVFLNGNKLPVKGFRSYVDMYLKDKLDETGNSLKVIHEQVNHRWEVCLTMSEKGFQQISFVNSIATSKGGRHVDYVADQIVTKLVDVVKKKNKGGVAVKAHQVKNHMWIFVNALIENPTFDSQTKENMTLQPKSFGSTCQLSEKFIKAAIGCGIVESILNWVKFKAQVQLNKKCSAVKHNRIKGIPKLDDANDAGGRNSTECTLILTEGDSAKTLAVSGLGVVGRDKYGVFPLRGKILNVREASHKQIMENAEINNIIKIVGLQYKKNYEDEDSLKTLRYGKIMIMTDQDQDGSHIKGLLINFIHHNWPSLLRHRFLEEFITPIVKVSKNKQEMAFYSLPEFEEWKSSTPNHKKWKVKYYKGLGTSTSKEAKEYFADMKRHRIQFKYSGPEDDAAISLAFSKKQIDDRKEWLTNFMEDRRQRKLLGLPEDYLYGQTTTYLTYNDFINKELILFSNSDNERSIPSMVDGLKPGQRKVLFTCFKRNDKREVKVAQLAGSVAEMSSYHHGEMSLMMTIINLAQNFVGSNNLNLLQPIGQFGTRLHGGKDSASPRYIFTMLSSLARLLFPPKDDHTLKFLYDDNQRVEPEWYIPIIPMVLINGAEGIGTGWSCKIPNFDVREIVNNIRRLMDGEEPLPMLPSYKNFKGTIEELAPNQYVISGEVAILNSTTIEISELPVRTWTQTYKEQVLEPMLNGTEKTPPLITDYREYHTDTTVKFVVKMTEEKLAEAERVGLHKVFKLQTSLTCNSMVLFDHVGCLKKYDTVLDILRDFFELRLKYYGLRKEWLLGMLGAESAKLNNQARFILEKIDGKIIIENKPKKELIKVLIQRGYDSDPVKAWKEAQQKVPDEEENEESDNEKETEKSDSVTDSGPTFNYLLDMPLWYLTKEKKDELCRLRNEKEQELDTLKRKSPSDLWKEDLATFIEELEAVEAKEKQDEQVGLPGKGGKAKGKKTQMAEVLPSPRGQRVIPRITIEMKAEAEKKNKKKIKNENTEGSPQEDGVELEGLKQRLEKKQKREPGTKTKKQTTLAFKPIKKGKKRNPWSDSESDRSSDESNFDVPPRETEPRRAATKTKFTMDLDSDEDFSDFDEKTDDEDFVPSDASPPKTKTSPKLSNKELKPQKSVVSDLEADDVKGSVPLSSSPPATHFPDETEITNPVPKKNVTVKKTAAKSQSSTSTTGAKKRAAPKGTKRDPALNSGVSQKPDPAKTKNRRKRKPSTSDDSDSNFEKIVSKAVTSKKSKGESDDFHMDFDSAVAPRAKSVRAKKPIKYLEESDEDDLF
In data set [4] the test system is MDA-MB-231. Briefly: Induction of apoptosis in human MDA-MB-231 cells assessed as proportion of viable cells at 5.21 uM measured after 24 hrs by Annexin V-FITC/propidium iodide staining based flow cytometry (reference value: 99%). It counts as functional. (Flow cytometry measures light scatter and fluorescence of single cells or particles in a stream.)
The nature of data set [5]: Toxicity in Swiss albino mouse assessed as absolute and relative kidney weight at 5 to 300 mg/kg, po administered as single dose. It counts as organism-based. As to conditions: in vivo, dose 5-300 mg/kg.
Data set [6] is described as follows: Toxicity in Swiss albino mouse assessed as WBC level in blood at 5 mg/kg, po administered as single dose (reference value: 17.06 +/- 1.33x10^3/mm3). The class given is organism-based. The conditions noted are these: in vivo.
Data set [7] concerns the target DNA topoisomerase 2-alpha (Homo sapiens) (UniProt P11388). In words: Inhibition of DNA-topoisomerase 2 in human MCF7 cells using kinetoplast DNA as substrate at 8.66 uM measured by ELISA. It counts as cell-based.
A short description of data set [8]: Toxicity in Swiss albino mouse assessed as SGOT level in serum at 300 mg/kg, po administered as single dose (reference value: 22.12 +/-1.91 U/L). The class given is organism-based. The conditions noted are these: in vivo.
The subject of data set [9] is MCF7. In words: Induction of cell cycle arrest in human MCF-7 cells assessed as accumulation at G2/M phase at 2.17 uM by propidium iodide staining based flow cytometry (reference value: 15.2%). The class given is functional.
The subject of data set [10] is MDA-MB-231. In words: Induction of apoptosis in human MDA-MB-231 cells assessed as proportion of viable cells at 2.6 uM measured after 24 hrs by Annexin V-FITC/propidium iodide staining based flow cytometry (reference value: 99%). The class given is functional.
The nature of data set [11]: Toxicity in Swiss albino mouse assessed as creatinine level in serum at 50 mg/kg, po administered as single dose (reference value: 0.27+/-0.02 mg/dl). It counts as organism-based. As to conditions: in vivo.
A short description of data set [12]: Toxicity in Swiss albino mouse assessed as SGPT level in serum at 5 mg/kg, po administered as single dose (reference value: 21.81 +/-2.1 U/L). It counts as organism-based. The conditions noted are these: in vivo.

`COc1ccc(C(c2ccccc2OCCN2CCCC2)c2cccc3ccccc23)c(OC)c1OC` (configuration not stated): the Activity in [1] was 0.66 mg/dL; in the data set with MCF7 [2], 79.36%; with MDA-MB-231 [4], 91.4%; in data set [5], “Non-Toxic”; in data set [6], 11.11 10^3/mm3; in [8] it was 25.61 U/L. The Activity in the data set with MCF7 [9] was 12.1%; with MDA-MB-231 [10] it was 95.1%; in [11], 0.34 mg/dL; in data set [12], 21.18 U/L. Besides, the inhibition (usually how much of the control response was suppressed) in data set [3] came out at 0.22%; in [7], 13.7%.
